Data as given in EPA's ToxRefDB 2.

How the values were obtained:
[1] = tested on: rat; conditions: Subchronic oral toxicity in rodents, sprague dawley, Feed, dose end: 90 day, group: systemic
[2] = tested on: rat; conditions: Prenatal developmental toxicity study, sprague dawley, Oral, Gavage/Intubation, dose end: 15 GD
[3] = tested on: rat; conditions: Combined chronic toxicity/carcinogenicity, sprague dawley, Oral, Feed, dose end: 24 month, group: systemic
[4] = tested on: dog; conditions: Chronic toxicity; beagle; Oral; Capsule; dose end: 52 week; group: systemic; systemic / hematology / anemia / anemia - hemolytic + systemic / hematology / erythrocyte (rbc) count differential / erythrocyte (rbc) + …
[5] = tested on: mouse; conditions: Carcinogenicity; other; Oral; Feed; group: systemic; systemic / hematology / anemia / anemia - nos + systemic / pathology microscopic / bone marrow / hemosiderosis + systemic / pathology …
[6] = tested on: mouse; conditions: Subchronic oral toxicity in rodents, Feed, dose end: 3 month, group: systemic
[7] = tested on: rat; conditions: Multigenerational reproductive toxicity study, other, Oral, Feed, dose end: 2 generation
[8] = tested on: dog; conditions: Subchronic oral toxicity in nonrodent, beagle, Capsule, dose end: 13 week, group: systemic
[9] = tested on: rabbit; conditions: Prenatal developmental toxicity study, Russian (Chbb:HM, SPF), Oral, Gavage/Intubation, dose end: 19 GD
[10] = tested on: rat; conditions: Multigenerational reproductive toxicity study, other, Oral, Feed, dose end: 2 generation; remark: listed apart in the source
[11] = tested on: rat; conditions: Subchronic oral toxicity in rodents, other, Feed, dose end: 90 day, group: systemic
[12] = tested on: rat; conditions: Prenatal developmental toxicity study, wistar, Oral, [Not Specified], dose end: 20 GD
[13] = tested on: rat; conditions: Subchronic oral toxicity in rodents, wistar, Feed, dose end: 90 day, group: systemic
[14] = tested on: mouse; conditions: Subchronic oral toxicity in rodents, other, Feed, dose end: 90 day, group: systemic
[15] = tested on: rat; conditions: Prenatal developmental toxicity study, other, Oral, Gavage/Intubation, dose end: 15 GD
[16] = tested on: dog; conditions: Subchronic oral toxicity in nonrodent, beagle, Feed, dose end: 3 month, group: systemic, systemic / in life observation / body weight / body weight gain + systemic / in life observation / food consumption / food consumption
[17] = tested on: rat; conditions: Combined chronic toxicity/carcinogenicity, other, Oral, Feed, dose end: 24 month, group: systemic
[18] = tested on: dog; conditions: Chronic toxicity; beagle; Oral; Feed; dose end: 12 month; group: systemic; systemic / in life observation / body weight / body weight gain + systemic / in life observation / food consumption / food consumption + …
[19] = tested on: mouse; conditions: Carcinogenicity, other, Oral, Feed, dose end: 18 month, group: systemic
[20] = systemic / in life observation / body weight / body weight + systemic / in life observation / food consumption / food consumption + systemic…
[21] = group: developmental, developmental / developmental malformation / trunk / umbilical hernia
[22] = group: maternal, systemic / in life observation / clinical signs / hemorrhagic perineal discharge
[23] = group: maternal, systemic / in life observation / clinical signs / hemorrhagic perineal discharge + reproductive / reproductive performance / …
[24] = systemic / hematology / anemia / anemia - hemolytic + systemic / in life observation / body weight / body weight + systemic / in life …
[25] = systemic / in life observation / clinical signs / alopecia
[26] = systemic / organ weight / spleen / relative to body weight
[27] = systemic / organ weight / spleen / relative to body weight + systemic / pathology microscopic / spleen / hemosiderosis + systemic / in life …
[28] = group: offspring, systemic / in life observation / body weight / offspring (pup) weight + systemic / in life observation / body weight / offspring (pup) …
[29] = group: parental, systemic / organ weight / spleen / absolute + systemic / organ weight / spleen / relative to body weight + systemic / pathology microscopic…
[30] = group: parental, systemic / organ weight / spleen / relative to body weight
[31] = systemic / hematology / anemia / anemia - hemolytic + systemic / hematology / erythrocyte (rbc) count differential / erythrocyte (rbc) + …
[32] = group: developmental, developmental / developmental malformation / bone / full supernumerary
[33] = group: maternal, systemic / in life observation / body weight / body weight gain
[34] = group: offspring, systemic / in life observation / body weight / offspring (pup) weight
[35] = group: parental, systemic / organ weight / kidney / relative to body weight
[36] = systemic / clinical chemistry / cholesterol / cholesterol + systemic / clinical chemistry / lipids / phospholipids
[37] = group: developmental, developmental / developmental malformation / bone / unossified
[38] = group: developmental, developmental / developmental malformation / bone / unossified + developmental / developmental malformation / bone / incomplete ossification…
[39] = group: maternal, systemic / in life observation / clinical signs / piloerection + systemic / in life observation / clinical signs / salivation + systemic / …
[40] = systemic / clinical chemistry / calcium / calcium
[41] = systemic / in life observation / body weight / body weight + systemic / in life observation / body weight / body weight gain + systemic / …
[42] = systemic / pathology microscopic / liver / necrosis
[43] = systemic / pathology microscopic / liver / necrosis + systemic / hematology / leukocyte (wbc) count differential / leukocyte (wbc) + …
[44] = group: developmental, developmental / developmental malformation / bone / incomplete ossification + developmental / developmental malformation / bone / unossified…
[45] = group: maternal, systemic / in life observation / body weight / body weight + systemic / in life observation / body weight / body weight gain + systemic / in…
[46] = systemic / pathology microscopic / liver / dilatation + systemic / clinical chemistry / urea nitrogen / urea + systemic / in life …
[47] = systemic / pathology microscopic / pancreas / hyperplasia
[48] = systemic / pathology microscopic / pancreas / hyperplasia + systemic / in life observation / body weight / body weight + systemic / in life …

In the case of `CSC(=O)c1cccc2nnsc12` [Acibenzolar-S-methyl], the LEL ([1]; systemic / clinical chemistry / sodium / sodium) is reported as 126 mg/kg/day, the LOAEL [1, 20] is reported as 516 mg/kg/day and the NEL [1, 20] is reported as 24.6 mg/kg/day. It also gave an NOAEL [1, 20] of 126 mg/kg/day, an LEL [2, 21] of 10 mg/kg/day and an LOAEL [2, 21] of 10 mg/kg/day. The NEL [2, 21] was less than 10 mg/kg/day, the NOAEL [2, 21] was less than 10 mg/kg/day and the LEL [2, 22] was 50 mg/kg/day. It also gave an LOAEL [2, 22] of 400 mg/kg/day, an NEL [2, 23] of 10 mg/kg/day and an NOAEL [2, 23] of 200 mg/kg/day. It also gave an LOAEL [3, 24] of 312 mg/kg/day, an NOAEL [3, 24] of 96.9 mg/kg/day and an LEL [3, 25] of 0.9 mg/kg/day. The NEL [3, 25] was less than 0.9 mg/kg/day, the LEL [4] was 200 mg/kg/day and the LOAEL [4] was 200 mg/kg/day. For the same compound, the NEL [4] was 25 mg/kg/day, the NOAEL [4] was 25 mg/kg/day and the LEL [5] was 234 mg/kg/day. For the same compound, the LOAEL [5] was 234 mg/kg/day, the NEL [5] was 10.8 mg/kg/day and the NOAEL [5] was 10.8 mg/kg/day. The LEL [6, 26] was 47.4 mg/kg/day, the NEL [6, 26] was less than 47.4 mg/kg/day and the LOAEL [6, 27] was 152 mg/kg/day. For the same compound, the NOAEL [6, 27] was 30.6 mg/kg/day, the LEL [7, 28] was 100 mg/kg/day and the LOAEL [7, 28] was 100 mg/kg/day. For the same compound, the NEL [7, 28] was 10 mg/kg/day, the NOAEL [7, 28] was 10 mg/kg/day and the LOAEL [7, 29] was 100 mg/kg/day. For the same compound, the NOAEL [7, 29] was 10 mg/kg/day, the LEL [7, 30] was 1 mg/kg/day and the NEL [7, 30] was less than 1 mg/kg/day. The LOAEL [8, 31] was 200 mg/kg/day, the NEL [8, 31] was 10 mg/kg/day and the NOAEL [8, 31] was 50 mg/kg/day. It also gave an LEL ([8]; systemic / organ weight / liver / absolute + systemic / organ weight / liver / relative to body weight) of 50 mg/kg/day.
Work on `Cc1cc(C2CC2)nc(Nc2ccccc2)n1` [Cyprodinil] yielded an LEL [9, 32] of 400 mg/kg/day, an LOAEL [9, 32] of 400 mg/kg/day and an NEL [9, 32] of 150 mg/kg/day. It also gave an NOAEL [9, 32] of 150 mg/kg/day, an LEL [9, 33] of 400 mg/kg/day and an LOAEL [9, 33] of 400 mg/kg/day. For the same compound, the NEL [9, 33] was 150 mg/kg/day, the NOAEL [9, 33] was 150 mg/kg/day and the LEL [10, 34] was 332 mg/kg/day. It also gave an LOAEL [10, 34] of 332 mg/kg/day, an NEL [10, 34] of 77.2 mg/kg/day and an NOAEL [10, 34] of 77.2 mg/kg/day. It also gave an LOAEL ([10]; group: parental, systemic / in life observation / body weight / body weight) of 326 mg/kg/day, an NOAEL ([10]; group: parental, systemic / in life observation / body weight / body weight + systemic / organ weight / heart / relative to body weight + systemic / organ …) of 81.3 mg/kg/day and an LEL [10, 35] of 0.7 mg/kg/day. The NEL [10, 35] was less than 0.7 mg/kg/day, the LEL [11, 36] was 3.24 mg/kg/day and the NEL [11, 36] was less than 3.24 mg/kg/day. The LOAEL ([11]; systemic / pathology microscopic / kidney / lesion(s) (nos)) was 18.9 mg/kg/day, the NOAEL ([11]; systemic / pathology microscopic / kidney / lesion(s) (nos) + systemic / clinical chemistry / albumin / albumin + systemic / clinical …) was 3.14 mg/kg/day and the LEL [12, 37] was 200 mg/kg/day. The LOAEL [12, 37] was 200 mg/kg/day, the NEL [12, 38] was 20 mg/kg/day and the NOAEL [12, 38] was 20 mg/kg/day. For the same compound, the LEL [12, 39] was 200 mg/kg/day, the LOAEL [12, 39] was 200 mg/kg/day and the NEL [12, 39] was 20 mg/kg/day. For the same compound, the NOAEL [12, 39] was 20 mg/kg/day, the LEL [13, 40] was 3.52 mg/kg/day and the NEL [13, 40] was less than 3.52 mg/kg/day. It also gave an LOAEL [13, 41] of 131 mg/kg/day, an NOAEL [13, 41] of 17.8 mg/kg/day and an LEL [14, 42] of 257 mg/kg/day. The LOAEL [14, 42] was 257 mg/kg/day, the NEL [14, 43] was 73.3 mg/kg/day and the NOAEL [14, 43] was 73.3 mg/kg/day. The LEL [15, 44] was 1000 mg/kg/day, the LOAEL [15, 44] was 1000 mg/kg/day and the NEL [15, 44] was 200 mg/kg/day. The NOAEL [15, 44] was 200 mg/kg/day, the LEL [15, 45] was 1000 mg/kg/day and the LOAEL [15, 45] was 1000 mg/kg/day. For the same compound, the NEL [15, 45] was 200 mg/kg/day, the NOAEL [15, 45] was 200 mg/kg/day and the LEL [16] was 560 mg/kg/day. For the same compound, the LOAEL [16] was 560 mg/kg/day, the NEL [16] was 210 mg/kg/day and the NOAEL [16] was 210 mg/kg/day. For the same compound, the LOAEL ([17]; systemic / pathology microscopic / liver / dilatation) was 35.6 mg/kg/day, the LEL ([17]; systemic / pathology microscopic / liver / dilatation + systemic / clinical chemistry / urea nitrogen / urea) was 35.6 mg/kg/day and the NEL [17, 46] was 2.7 mg/kg/day. The NOAEL [17, 46] was 2.7 mg/kg/day, the LEL [18] was 446 mg/kg/day and the LOAEL [18] was 446 mg/kg/day. The NEL [18] was 68 mg/kg/day, the NOAEL [18] was 68 mg/kg/day and the LEL [19, 47] was 212 mg/kg/day. It also gave an LOAEL [19, 47] of 212 mg/kg/day, an NEL [19, 48] of 16.1 mg/kg/day and an NOAEL [19, 48] of 16.1 mg/kg/day.
